Laboratory results reported in paper PMC7395068, “The evolution of strategies to minimise the risk of human drug-induced liver injury (DILI) in drug discovery and development” (Archives of Toxicology, 2020).
Where two headings read alike, the source gives them in different places.

Experiments:
[1] = Plasma free fraction (fu) and unbound Cmax (Cmax,u); type: in vitro ADME, human; conditions: unbound plasma Cmax
Method: The prediction of DILI severity was evaluated further using the 3D combined HCI assays using plasma-free fraction. The majority of fu values were obtained from literature, when unavailable in-house prediction was utilised. Unbound plasma Cmax concentrations (Cmax,u) were derived by multiplying total plasma Cmax with the corresponding free fraction (fu) for each compound.

[2] = cited from earlier work; for DILI severity category (Chen 2016): human DILI classification, LTKB DILIrank
[3] = tested on: primary human hepatocytes, NIH3T3 fibroblasts, BSEP, CYP3A4; conditions: cited from earlier work
[4] = tested on: HepG2 cells; conditions: cited from earlier work
[5] = tested on: HepG2 cells; conditions: cited from earlier work; remark: listed apart in the source
[6] = tested on: human hepatocytes; conditions: cited from earlier work
[7] = tested on: PHH; conditions: cited from earlier work
[8] = tested on: hLiMTs; conditions: cited from earlier work
[9] = tested on: HepG2 C3A spheroid, BSEP, Glu/Gal in HepG2 cells, bioactivation; conditions: cited from earlier work
[10] = read-out: Human plasma Cmax; total plasma Cmax.tot, median of 9 literature references; cited from earlier work
[11] = plasma free fraction; cited from earlier work
[12] = cited from earlier work
[13] = tested on: THLE-Null and THLE-3A4 cells; conditions: In vitro Assay; ref Gustafsson 2014; cited from earlier work
[14] = tested on: HepG2 cells, primary human hepatocytes; conditions: In vitro Assay; ref Garside 2014; cited from earlier work
[15] = ref Chen 2011; cited from earlier work
[16] = tested on: rBsep; conditions: In vitro Assay; ref Dawson 2012; cited from earlier work
[17] = tested on: hLiMTs; assay: Combined HCI (HCS) and cellular ATP 3D assay in hLiMTs; conditions: for AC50 / minimal effective concentration: Homo sapiens
[18] = tested on: HepaRG spheroids; assay: Combined HCI (HCS) and cellular ATP 3D assay in HepaRG spheroids; conditions: for AC50 / minimal effective concentration: Homo sapiens
[19] = In vitro Assay, ref Schadt 2015
[20] = In vitro Assay, ref Persson 2013
[21] = In vitro Assay, ref Proctor 2017
[22] = Microtissue model structural based (HCI), combined HCS and ATP, MEC < 25 × Cmax.tot cut-off

SMILES: CCc1ccc(CCOc2ccc(CC3SC(=O)NC3=O)cc2)nc1 (stereo not shown) [pioglitazone, reference compound]
- Human plasma Cmax,u [1]: 29 nM
- DILI severity category (Chen et al. [2016]) ([2]; LTKB DILIrank category, ref Chen et al. 2016): Less
- DILI severity category (Chen 2016) ([2]; ref Chen et al. 2016): Less
- DILI severity category (Chen 2016) ([2]; ref Chen et al. 2016, listed as Pioglitazone): Less DILI severity
- DILI severity category ([2]; human DILI severity, ref Chen et al.): Less
- DILI +VE (5-8), DILI -VE (-4) ([2]; ref Chen 2016): +VE
- DILI severity category ([2]; ref Chen 2016): vLess-DILI-Concern
- DILI in vitro assay prediction, Schadt (2015) ([3]; BSEP & Metabolism based, ref Schadt et al. 2015): +VE
- Cellular toxicity (3T3 cells) [3, 19]: -VE
- Combined Assay [3, 19]: +VE
- GSH adduct HML [3, 19]: -VE
- Hepatocyte cellular toxicity [3, 19]: +VE
- MitoTox 3T3 [3, 19]: -VE
- TDI CYP3A4 [3, 19]: -VE
- hBSEP inhibition [3, 19]: +VE
- Structural based (HCI) ([4]; In vitro Assay, ref O'Brien 2006): +VE
- DILI in vitro assay prediction, O'Brien (2006) ([4]; Structural based (HCI), HepG2, ref O'Brien et al. 2006): -VE
- Cluser analysis [5, 20]: -VE
- Structural based (HCI) [5, 20]: +VE
- DILI in vitro assay prediction, Persson (2013) ([5]; Structural based (HCI), HepG2, ref Persson et al. 2013): -VE
- Structural based (HCI) ([6]; In vitro Assay, ref Xu 2008): -VE
- DILI in vitro assay prediction, Xu (2008) ([6]; Structural based (HCI), human hepatocytes, ref Xu et al. 2008): -VE
- PHH/100xCmax, Proctor (2017) ([7]; 2D PHH, ATP, IC50 < 100 × Cmax.tot, ref Proctor et al. 2017): -VE
- PHH/100uM, Proctor (2017) ([7]; 2D PHH, ATP, IC50 threshold 100 µM, ref Proctor et al. 2017): -VE
- PHH ATP <100uM [7, 21]: -VE
- hLiMTs ATP <100uM [8, 21]: -VE
- hLiMTs/100xCmax, Proctor (2017) ([8]; hLiMTs, ATP, IC50 < 100 × Cmax.tot, ref Proctor et al. 2017): -VE
- hLiMTs/100uM, Proctor (2017) ([8]; hLiMTs, ATP, IC50 threshold 100 µM, ref Proctor et al. 2017): -VE
- Bayesian Machine Learning DILI prediction, Williams (2019) ([9]; Bayesian modeling, ref Williams et al. 2019): +VE
- Bayesian Machine Learning ([9]; In vitro Assay, ref Williams 2019): +VE
- Cmax [10]: 2950 nM
- fu [11]: 0.010
- Assigned DILI category ([12]; Chen et al. 2016 or literature alignment, ref Chen et al. 2016): 2
- In vivo DILI ([12]; […]): -VE
- In vivo DILI ([12]; ref Dawson 2012): +VE
- In vivo DILI ([12]; ref Garside 2014): +VE
- in vivo DILI categorisation in the literature ([12]; ref Garside et al. 2014, Proctor et al. 2017, Gustafsson et al. 2014): in vivo DILI positive
- In vivo DILI ([12]; ref Gustafsson 2014): +VE
- In vivo DILI ([12]; ref O'Brien 2006): -VE
- in vivo DILI categorisation in the literature ([12]; ref O'Brien et al. 2006, Xu et al. 2008, Dawson et al. 2012, Persson et al. 2013): non-DILI potential
- In vivo DILI ([12]; ref Persson 2013): -VE
- In vivo DILI ([12]; ref Proctor 2017): +VE
- In vivo DILI ([12]; ref Schadt 2015): +VE
- In vivo DILI ([12]; ref Williams 2019): +VE
- In vivo DILI ([12]; ref Xu 2008): -VE
- THLE-Null [13]: -VE
- THLE-Null/3A4 [13]: -VE
- Cluster 1-6 +VE Assay [14]: +VE
- DILI Score (FDA) (1-8) [15]: 3
- Inhibition of rBsep cutoff<1& cmax u>.2 [16]: +VE
- Inhibition of rBsep cutoff<3 [16]: +VE
- AC50 ([17]; read-out: ATP endpoint AC50): 106 µM
- minimal effective concentration ([17]; read-out: ATP endpoint MEC): 38.1 µM
- AC50 ([17]; read-out: HCS endpoint AC50): 9.95 µM
- minimal effective concentration ([17]; read-out: HCS endpoint MEC): 5.35 µM
- DILI prediction hLiMTs (HCS-MEC) [17, 22]: +VE (MEC < 25 × Cmax.tot cut-off)
- hLiMTs <25x Avg Cmax ATP ([17]; hLiMTs, ATP endpoint, cut-off <25x Avg Cmax): +ve
- hLiMTs <100x Avg Cmaxu ATP ([17]; hLiMTs, ATP endpoint, cut-off <100x Avg Cmaxu): -ve
- hLiMTs <25x Avg Cmax HCS ([17]; hLiMTs, HCS endpoints, cut-off <25x Avg Cmax): +ve
- hLiMTs <100x Avg Cmaxu HCS ([17]; hLiMTs, HCS endpoints, cut-off <100x Avg Cmaxu): -ve
- hLiMTs <25x Avg Cmax All ([17]; hLiMTs, all endpoints (ATP and HCS), cut-off <25x Avg Cmax): +ve
- hLiMTs Cmax max All ([17]; hLiMTs, all endpoints, Cmax max used): +ve
- hLiMTs Cmax min All ([17]; hLiMTs, all endpoints, Cmax min used): +ve
- hLiMTs <10 uM All ([17]; hLiMTs, all endpoints, cut-off <10 uM): +ve (<10 uM)
- hLiMTs <100x Avg Cmaxu All ([17]; hLiMTs, all endpoints, cut-off <100x Avg Cmaxu): -ve
- HepaRG <25x Avg Cmax ATP ([18]; HepaRG, ATP endpoint, cut-off <25x Avg Cmax): +ve
- HepaRG <100x Avg Cmaxu ATP ([18]; HepaRG, ATP endpoint, cut-off <100x Avg Cmaxu): -ve
- HepaRG <25x Avg Cmax HCS ([18]; HepaRG, HCS endpoints, cut-off <25x Avg Cmax): +ve
- HepaRG <100x Avg Cmaxu HCS ([18]; HepaRG, HCS endpoints, cut-off <100x Avg Cmaxu): -ve
- HepaRG <25x Avg Cmax All ([18]; HepaRG, all endpoints (ATP and HCS), cut-off <25x Avg Cmax): +ve
- HepaRG Cmax max All ([18]; HepaRG, all endpoints, Cmax max used): +ve
- HepaRG Cmax min All ([18]; HepaRG, all endpoints, Cmax min used): +ve
- HepaRG <10 uM All ([18]; HepaRG, all endpoints, cut-off <10 uM): -ve
- HepaRG <100x Avg Cmaxu All ([18]; HepaRG, all endpoints, cut-off <100x Avg Cmaxu): -ve
- AC50 ([18]; HepaRG, read-out: ATP endpoint AC50): 67.5 µM
- minimal effective concentration ([18]; HepaRG, read-out: ATP endpoint MEC): 44.7 µM
- AC50 ([18]; HepaRG, read-out: HCS endpoint AC50): 93.7 µM
- minimal effective concentration ([18]; HepaRG, read-out: HCS endpoint MEC): 39.2 µM
- DILI prediction HepaRG spheroids (HCS-MEC) [18, 22]: +VE (MEC < 25 × Cmax.tot cut-off)
